# Test results from patent US20140121231A1, “PYRANOPYRIDONE INHIBITORS OF TANKYRASE” (Hoffmann-La Roche, Inc., priority 2012, published 2014).
# Where a name gives a salt, the structure may show the parent alone.
# Tests used:
# [1] = molecular target: T1, PARP1 (His6-PARP1, full length) (Homo sapiens, UniProt P09874); assay: TR-FRET Binding Assay (Example 71), PARP1; details: TR-FRET assay of Example 71 with His6-PARP1
# T1 construct: His6-PARP1 (full length) can be substituted for His6-TNKS 1
# Experimental: (§1) μHTS-TNKS-IWR2 TR-FRET Binding Assay (10 μL/well in BD1536-well plate, a single point)
# Tankyrase 1 (TNKS1): 184.3 μM=5.2 mg/mL His6-TNKS1, MW=28.2 KDa (construct: 1088-1327, 1266M) in 20 mM Tris pH 8, 150 mM NaCl, 10% glycerol, and 0.5 mM TCEP. Alternatively, His6-tankyrase 2 (construct: 934-1166) (His6-TNKS2) or His6-PARP1 (full length) can be substituted for His6-TNKS 1.
# (§2) Assay buffer 1a (AB1a) for TNKS dilution: 50 mM Tris, pH 7.4, 100 mM sodium chloride solution, 1 mM magnesium chloride solution, 1 mM DL-dithiothreitol solution, 0.2 mg/mL bovine serum albumin solution, 0.025% NP-40. Assay buffer 1b (AB 1b) for Biotin-IWR2 dilution: 50 mM Tris, pH 7.4, 100 mM sodium chloride solution, 1 mM magnesium chloride solution, 1 mM DL-dithiothreitol solution, 0.2 mg/mL bovine serum albumin solution, 0.05% NP-40 Assay buffer 1c (AB 1c) for compound dilution: 50 mM Tris, pH 7.4, 100 mM sodium chloride solution, 1 mM magnesium chloride solution, 1 mM DL-dithiothreitol solution, 0.2 mg/mL bovine serum albumin solution Assay buffer 2 (AB2) for Eu/APC: 50 mM Tris, pH 7.4, 100 mM sodium chloride solution, 1 mM magnesium chloride solution, 0.2 mg/mL bovine serum albumin solution
# Prepare Biotinylated IWR2 stock solution (3.33× stock) for TOTL and compound wells: 200 nM Biotin-IWR2 in 5% DMSO/AB1b buffer
# Prepare BLANK well stock solution: 5% DMSO/AB1b buffer Prepare POSITIVE CONTROL well stock solution (3.33× stock): 200 nM XAV939 in 200 nM Biotin-IWR2/5% DMSO/AB1b buffer Prepare TNKS1 stock solution (5× stock): 300 nM TNKS in AB1a buffer. (Alternatively, use TNKS2 or PARP1 stock solutions.) Prepare Eu/APC stock solution (5× stock): 3.5 nM Eu-SA/50 nM APC-His6Ab in AB2 buffer.
# (§3) Add 25 μL/well 1.5% DMSO/AB1c buffer in each compound well to the compound concentration at 74 μM in 8.8% DMSO/AB1c buffer or in the 2 μL DMSO CONTROL wells (BLANK, TOTAL and POSITIVE wells) in the compound plate. Transfer 3 μL/well of above solution (solution 1,2,3) to an empty assay plate (BD1536-well plate) as follows: TOTAL and cpd wells: Solution 1 (Biotin-IWR2): BLANK wells: Solution 2 (No Biotin-IWR2): POSITIVE CONTROL wells: Solution 3 (Biotin-IWR2XAV939) Transfer 3 μL/well of the above diluted compound solutions or compound dilution buffer to the above assay plate. Add 2 μL/well of 300 nM TNKS stock solution (4) to every well in the above assay plate. Centrifuge the assay plate at 2100 rpm for 2 min. Incubate the assay plate at 26° C. for 30 minutes. Add 2 μL/well 3.5 nMEu/50 nM APC solution (5) to every well in the above assay plate. Centrifuge the assay plate at 2100 rpm for 2 min. Incubate the assay plate at 26° C. for 60 min. Read the assay plate immediately at excitation wavelength of 330 nm and emission wavelength of 615 and 665 nM in time resolved fluorescence mode.
# . Representative compound data for the PARP1 assay is in TABLE 2 (below) Values are in μM.
# Tankyrase 1 (TNKS1) = molecular target: T2, Tankyrase 1 (TNKS1) (Homo sapiens, UniProt O95271); assay: μHTS-TNKS-IWR2 TR-FRET Binding Assay (Example 71), TNKS1
# T2 construct: His6-TNKS1, MW=28.2 KDa (construct: 1088-1327, 1266M)
# Experimental: as §1, §2
# as §3, with “Transfer” for “Add 25 μL/well 1.5% DMSO/AB1c buffer in each compound well to the compound concentration at 74 μM in 8.8% DMSO/AB1c buffer or in the 2 μL DMSO CONTROL wells (BLANK, TOTAL and POSITIVE wells) in the compound plate. Transfer”, “min.” for “min. Read the assay plate immediately at excitation wavelength of 330 nm and emission wavelength of 615 and 665 nM in time resolved fluorescence mode.”
# tankyrase 2 (His6-TNKS2) = molecular target: T3, tankyrase 2 (His6-TNKS2) (Homo sapiens, UniProt Q9H2K2); assay: μHTS-TNKS-IWR2 TR-FRET Binding Assay (Example 71), TNKS2; details: footnote 1: Tankyrase 1 and 2 inhibition assay in Example 71 (TR-FRET)
# T3 construct: His6-tankyrase 2 (construct: 934-1166) (His6-TNKS2)
# Experimental: as §1
# Biotin-4-((1S,2R,6S,7R)-3,5-Dioxo-4-aza-tricyclo[5.2.1.0*2,6*]dec-8-en-4-yl)-N-(4-methyl-quinolin-8-yl)-benzamide (Biotin-IWR2): 10 mM Biotin-IWR2 stock in DMSO, stored at −20° C. Positive control: 10 mM 2-(4-Trifluoromethyl-phenyl)-3,5,7,8-tetrahydro-thiopyrano[4,3-d]pyrimidin-4-one (XAV939) in DMSO, stored at −20° C.
# as §2
# as §3, with “Transfer” for “Add 25 μL/well 1.5% DMSO/AB1c buffer in each compound well to the compound concentration at 74 μM in 8.8% DMSO/AB1c buffer or in the 2 μL DMSO CONTROL wells (BLANK, TOTAL and POSITIVE wells) in the compound plate. Transfer”, “min.” for “min. Read the assay plate immediately at excitation wavelength of 330 nm and emission wavelength of 615 and 665 nM in time resolved fluorescence mode.”
# T2 sequence (O95271 1088-1327): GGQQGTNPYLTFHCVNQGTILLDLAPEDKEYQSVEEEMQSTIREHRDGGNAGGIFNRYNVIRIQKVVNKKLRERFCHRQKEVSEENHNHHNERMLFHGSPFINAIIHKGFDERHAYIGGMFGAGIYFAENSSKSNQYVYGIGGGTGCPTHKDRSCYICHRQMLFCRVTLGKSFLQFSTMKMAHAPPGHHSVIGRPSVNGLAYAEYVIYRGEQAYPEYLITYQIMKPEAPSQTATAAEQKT
# T1 sequence (P09874 whole entry, species assumed): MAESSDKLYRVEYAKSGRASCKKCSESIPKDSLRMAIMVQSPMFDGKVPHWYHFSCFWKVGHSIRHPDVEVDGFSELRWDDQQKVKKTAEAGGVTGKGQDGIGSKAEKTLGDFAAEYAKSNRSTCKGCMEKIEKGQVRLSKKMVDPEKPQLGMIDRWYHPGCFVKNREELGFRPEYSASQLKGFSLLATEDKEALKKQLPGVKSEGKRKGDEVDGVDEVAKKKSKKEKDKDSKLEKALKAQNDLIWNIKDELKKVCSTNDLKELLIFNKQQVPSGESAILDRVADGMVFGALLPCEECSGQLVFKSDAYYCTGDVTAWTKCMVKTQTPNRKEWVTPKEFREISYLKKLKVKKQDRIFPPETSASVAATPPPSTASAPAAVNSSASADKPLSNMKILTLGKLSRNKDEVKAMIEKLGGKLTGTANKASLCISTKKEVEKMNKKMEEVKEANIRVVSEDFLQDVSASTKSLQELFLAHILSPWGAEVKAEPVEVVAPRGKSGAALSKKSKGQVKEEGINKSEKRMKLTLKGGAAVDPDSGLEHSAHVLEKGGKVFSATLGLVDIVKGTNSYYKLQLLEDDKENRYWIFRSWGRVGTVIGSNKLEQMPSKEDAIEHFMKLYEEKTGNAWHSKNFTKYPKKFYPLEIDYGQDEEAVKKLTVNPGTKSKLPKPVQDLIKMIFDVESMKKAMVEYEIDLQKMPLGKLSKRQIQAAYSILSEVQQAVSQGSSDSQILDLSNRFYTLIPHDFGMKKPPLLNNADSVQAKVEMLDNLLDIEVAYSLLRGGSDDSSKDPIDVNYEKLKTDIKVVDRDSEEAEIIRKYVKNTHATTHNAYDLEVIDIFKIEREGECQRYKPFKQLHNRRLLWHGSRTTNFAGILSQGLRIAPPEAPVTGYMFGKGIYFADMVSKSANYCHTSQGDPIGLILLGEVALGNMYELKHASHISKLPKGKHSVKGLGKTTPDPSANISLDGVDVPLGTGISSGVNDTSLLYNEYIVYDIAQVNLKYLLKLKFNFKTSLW
# T3 sequence (Q9H2K2 934-1166): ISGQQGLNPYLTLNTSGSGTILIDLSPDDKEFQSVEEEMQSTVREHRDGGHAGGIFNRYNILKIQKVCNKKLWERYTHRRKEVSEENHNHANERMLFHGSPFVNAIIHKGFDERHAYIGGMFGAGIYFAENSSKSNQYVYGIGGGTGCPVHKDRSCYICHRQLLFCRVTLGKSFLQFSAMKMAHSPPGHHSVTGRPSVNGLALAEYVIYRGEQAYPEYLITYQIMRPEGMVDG
smiles,measurement,setting,value
"O=c1[nH]c2c(c3ccccc13)COC(C1CCOC1)C2 (mixture of isomers) [Compound I-59, 2-(Tetrahydro-furan-3-yl)-1,2,4,10-tetrahydro-3-oxa-10-aza-phenanthren-9-one]",IC50,[1],0.28 µM
same,IC50,Tankyrase 1 (TNKS1),0.0336 µM
same,IC50,tankyrase 2 (His6-TNKS2),0.0344 µM
"CC(C)C1Cc2[nH]c(=O)c3ccccc3c2CO1 (racemic) [Compound I-2, rac-2-Isopropyl-1,2,4,10-tetrahydro-3-oxa-10-aza-phenanthren-9-one]",IC50,[1],0.0343 µM
"CC(C)C1Cc2[nH]c(=O)c3cccnc3c2CO1 (racemic) [Compound I-4, rac-2-Isopropyl-1,2,4,10-tetrahydro-3-oxa-5,10-diaza-phenanthren-9-one]",IC50,[1],0.345 µM
"CC(C)C1Cc2[nH]c(=O)c3sccc3c2CO1 (racemic) [Compound I-5, rac-7-Isopropyl-5,6,7,9-tetrahydro-8-oxa-3-thia-5-aza-cyclopenta[a]naphthalen-4-one]",IC50,[1],0.0829 µM
same,IC50,Tankyrase 1 (TNKS1),0.0703 µM
same,IC50,tankyrase 2 (His6-TNKS2),0.0921 µM
"CC(C)C1Cc2[nH]c(=O)c3cc(Cl)ccc3c2CO1 (racemic) [Compound I-6, rac-7-Chloro-2-isopropyl-1,2,4,10-tetrahydro-3-oxa-10-aza-phenanthren-9-one]",IC50,[1],0.0582 µM
same,IC50,Tankyrase 1 (TNKS1),0.044 µM
same,IC50,tankyrase 2 (His6-TNKS2),0.0734 µM
"O=c1[nH]c2c(c3ccccc13)COC(C1CCCC1)C2 (racemic) [Compound I-7, rac-2-Cyclopentyl-1,2,4,10-tetrahydro-3-oxa-10-aza-phenanthren-9-one]",IC50,[1],0.119 µM
same,IC50,Tankyrase 1 (TNKS1),0.0342 µM
same,IC50,tankyrase 2 (His6-TNKS2),0.043 µM
"CC(C)(C)C1Cc2[nH]c(=O)c3ccccc3c2CO1 (racemic) [Compound I-8, rac-2-tert-Butyl-1,2,4,10-tetrahydro-3-oxa-10-aza-phenanthren-9-one]",IC50,[1],0.176 µM
"CC(C)C1Cc2[nH]c(=O)c3ccoc3c2CO1 (racemic) [Compound I-10, rac-7-Isopropyl-5,6,7,9-tetrahydro-1,8-dioxa-5-aza-cyclopenta[a]naphthalen-4-one]",IC50,[1],0.0801 µM
same,IC50,Tankyrase 1 (TNKS1),0.0937 µM
same,IC50,tankyrase 2 (His6-TNKS2),0.231 µM
"O=c1[nH]c2c(c3ccccc13)COC(CCc1ccccc1)C2 (racemic) [Compound I-13, rac-2-Phenethyl-1,2,4,10-tetrahydro-3-oxa-10-aza-phenanthren-9-one]",IC50,[1],2.67 µM
same,IC50,Tankyrase 1 (TNKS1),0.0408 µM
same,IC50,tankyrase 2 (His6-TNKS2),0.0521 µM
"CC(C)C1Cc2[nH]c(=O)c3ccncc3c2CO1 (racemic) [Compound I-14, rac-7-Isopropyl-5,7,8,9-tetrahydro-6-oxa-3,9-diaza-phenanthren-10-one]",IC50,[1],0.68 µM
same,IC50,Tankyrase 1 (TNKS1),0.0972 µM
same,IC50,tankyrase 2 (His6-TNKS2),0.204 µM
"CC(C)C1Cc2[nH]c(=O)c3cnccc3c2CO1 (racemic) [Compound I-15, rac-7-Isopropyl-5,7,8,9-tetrahydro-6-oxa-2,9-diaza-phenanthren-10-one]",IC50,[1],> 50 µM
same,IC50,Tankyrase 1 (TNKS1),0.0508 µM
same,IC50,tankyrase 2 (His6-TNKS2),0.0688 µM
"CC(C)C1Cc2[nH]c(=O)c3ccc([N+](=O)[O-])cc3c2CO1 (racemic) [Compound I-16, rac-2-Isopropyl-6-nitro-1,2,4,10-tetrahydro-3-oxa-10-aza-phenanthren-9-one]",IC50,[1],0.0356 µM
same,IC50,Tankyrase 1 (TNKS1),0.404 µM
same,IC50,tankyrase 2 (His6-TNKS2),2.7 µM
"Cc1cccc2c(=O)[nH]c3c(c12)COC(C(C)C)C3 (racemic) [Compound I-17, rac-2-Isopropyl-5-methyl-1,2,4,10-tetrahydro-3-oxa-10-aza-phenanthren-9-one]",IC50,[1],0.107 µM
"COC(=O)c1ccc2c(=O)[nH]c3c(c2c1)COC(C(C)C)C3 (racemic) [Compound I-19, rac-2-Isopropyl-9-oxo-1,4,9,10-tetrahydro-2H-3-oxa-10-aza-phenanthrene-6-carboxylic acid methyl ester]",IC50,[1],0.0735 µM
same,IC50,Tankyrase 1 (TNKS1),0.0841 µM
same,IC50,tankyrase 2 (His6-TNKS2),0.386 µM
"CC1(C2Cc3[nH]c(=O)c4ccccc4c3CO2)CCCCC1 (racemic) [Compound I-20, rac-2-(1-Methyl-cyclohexyl)-1,2,4,10-tetrahydro-3-oxa-10-aza-phenanthren-9-one]",IC50,[1],0.0611 µM
same,IC50,Tankyrase 1 (TNKS1),0.0255 µM
same,IC50,tankyrase 2 (His6-TNKS2),0.0305 µM
"CC(C)(C)OC(=O)N1CCC(C2Cc3[nH]c(=O)c4ccccc4c3CO2)CC1 (racemic) [Compound I-21, rac-4-(9-Oxo-1,4,9,10-tetrahydro-2H-3-oxa-10-aza-phenanthren-2-yl)-piperidine-1-carboxylic acid tert-butyl ester]",IC50,[1],0.0159 µM
same,IC50,Tankyrase 1 (TNKS1),0.0335 µM
same,IC50,tankyrase 2 (His6-TNKS2),0.0467 µM
"O=c1[nH]c2c(c3ccccc13)COC(C1CCNCC1)C2 (racemic) [Compound I-22, rac-2-Piperidin-4-yl-1,2,4,10-tetrahydro-3-oxa-10-aza-phenanthren-9-one, trifluoroacetate]",IC50,[1],> 50 µM
same,IC50,Tankyrase 1 (TNKS1),0.0888 µM
same,IC50,tankyrase 2 (His6-TNKS2),0.109 µM
"CC(C)C1Cc2[nH]c(=O)c3ccc(C(N)=O)cc3c2CO1 (racemic) [Compound I-23, rac-2-Isopropyl-9-oxo-1,4,9,10-tetrahydro-2H-3-oxa-10-aza-phenanthrene-6-carboxylic acid amide]",IC50,[1],2.03 µM
same,IC50,Tankyrase 1 (TNKS1),0.0886 µM
same,IC50,tankyrase 2 (His6-TNKS2),0.243 µM
"CC(C)C1Cc2[nH]c(=O)c3ccc(N)cc3c2CO1 (racemic) [Compound I-24, rac-6-Amino-2-isopropyl-1,2,4,10-tetrahydro-3-oxa-10-aza-phenanthren-9-one]",IC50,[1],0.0634 µM
same,IC50,Tankyrase 1 (TNKS1),0.473 µM
same,IC50,tankyrase 2 (His6-TNKS2),1.3 µM
"CC(C)(CO)C1Cc2[nH]c(=O)c3ccccc3c2CO1 (racemic) [Compound I-30, rac-2-(2-Hydroxy-1,1-dimethyl-ethyl)-1,2,4,10-tetrahydro-3-oxa-10-aza-phenanthren-9-one]",IC50,[1],0.0533 µM
"O=C(C1COC1)N1CCC(C2Cc3[nH]c(=O)c4ccccc4c3CO2)CC1 (racemic) [Compound I-52, rac-2-[1-(Oxetane-3-carbonyl)-piperidin-4-yl]-1,2,4,10-tetrahydro-3-oxa-10-aza-phenanthren-9-one]",IC50,[1],0.0328 µM
"Cc1cccc2c(=O)[nH]c3c(c12)CO[C@H](C(C)(C)CO)C3 (single isomer, unassigned) [Compound I-66]",IC50,[1],0.0897 µM
"Cc1cccc2c(=O)[nH]c3c(c12)CO[C@@H](C(C)(C)CO)C3 (single isomer, unassigned) [Compound I-67]",IC50,[1],0.07 µM
"CS(=O)(=O)N1CCC(C2Cc3[nH]c(=O)c4ccccc4c3CO2)C1 (stereo not drawn) [Compound I-39, 2-(1-Methanesulfonyl-pyrrolidin-3-yl)-1,2,4,10-tetrahydro-3-oxa-10-aza-phenanthren-9-one]",IC50,[1],0.0365 µM
